The values below come from patent publication US20240132498A1, “CRYSTALLINE FORMS OF 5-(3,4-DIFLUOROBENZYL)-8-((1R,4R)-4-METHYLCYCLOHEXYL)-6,9-DIOXO-2,5,8-TRIAZASPIRO[3.5]NONANE-2-CARBALDEHYDE” (Cytokinetics, Incorporated, priority 2022, published 2024).

Each structure is given as a SMILES string.

Data set [1] in a line: Dog single dose pharmacokinetics. Type of data set: in vivo. To be noted: male, plasma, intravenous, beagle dogs; for Vd: read-out: Vss. As for the experimental part: Non-naïve male beagle dogs (8 months −3 years of age, body weight 8-13 kg) were used in this study. All animals for IV administration had free access to food and water; all animals for PO were fasted overnight prior to dosing and were fed approximately 6 hours after dosing. For the animals in PO group, pentagastrin (6.0 μg/kg, i.m.) was administrated 20 minutes before dosing PO formulation and 1.5 hours after the second pentagastrin dosing. The dosing volume was 0.024 mL/kg, the concentration was 250 μg/mL in DMSO/1 N NaOH/PBS. 10 mL of 0.001 N HCl was used to wash the gavage catheter for each animal. The IV dose solution was prepared in 10% DMA/50% PG/40% HPOCD solution (40% w/v aqueous HPOCD) at a concentration of 1.0 mg/mL. The oral dose suspension was prepared by suspending the compound in 0.5% HPMC/0.1% Tween 80 in distilled water at a concentration of 0.2 mg/mL. Concentrations of IV and PO doses were measured at the end of the study. PK parameters were calculated using the nominal dose values if the measured values were within 20% of the nominal values. Blood samples were collected by venipuncture of peripheral veins except the dosing vein at pre-dose, 5 15, 30 min, 1, 2, 4, 6, 8, 24 and 48 h post-dose. Blood samples were centrifuged and resultant plasma was frozen for bioanalysis. Plasma samples were stored at −80° C. before analysis. Plasma samples were analyzed for compound concentrations using the LC/MS/MS method. Briefly, a 50 μL aliquot of each plasma sample was mixed with 100 μL of acetonitrile that contained an internal standard. The mixture was vortexed and centrifuged. Ten (10) μL of the resulting solution was injected onto a reverse-phase C18 column and the resultant peaks detected on a LC/MS/MS equipped with a turbo ionspray ionization source. Sample concentrations below the limit of quantification (BLQ) were treated as zero for PK calculations. PK parameters were estimated from individual animals using noncompartmental analysis of the concentration-time data (Phoenix WinNonLin software, version 64; Pharsight, Mountain View, CA). The elimination rate constant (k) was calculated as the absolute value of the slope of the linear regression of logarithm (log) of the concentration versus time for the last three data points of the concentration-time profiles. Apparent elimination half-life (t1/2) values were calculated as 1n(2)/k. Area under the concentration-time curve (AUC) values were estimated using linear trapezoidal method. AUCt values were calculated from the dosing time to the last measurable concentration. AUC∞ values were calculated as the sum of the corresponding AUC and the ratio of the last detectable concentration divided by k. Plasma clearance (CL) was calculated from Dose/AUC∞. Mean resident time extrapolated to infinity (MRT∞) was estimated by moment analysis. VSS, was calculated from MRT∞×CL. Maximum concentration (Cmax) and time to reach Cmax (tmax) were recorded as observed. As this was a cross-over study, bioavailability was calculated dAUC∞,po/dAUC∞,iv×100% where dAUC was the dose normalized AUC value from the same animal given IV and PO dose. Compounds tested were prepared in accordance with the synthetic procedures described herein.

Data set [2] in a line: Projected single-dose CL and Vss values in humans (allometric scaling). To be noted: human, allometric scaling of mouse, rat, dog, cynomolgus monkey IV PK. As for the experimental part: Allometric scaling for the prediction of human Clearance and Volume of Distribution was based on interspecies simple allometric scaling of mouse, rat, dog, and cynomolgus monkey intravenous pharmacokinetic parameters (Boxenbaum, J Pharmacokinet Biopharm 10:201-27, 1982). Prediction of human CL was performed by extrapolating pre-clinical species' plasma intravenous clearance. The ‘rule of exponents’ (Mahmood & Balian, Life Sci. 59:579-85, 1996) was examined in this prediction, where it has been proposed that, when the exponent of simple allometry lies between 0.71 and 0.99, a correction factor based on Maximum Life Span (MLP) of this species can be applied and, when the exponent of simple allometry is greater than 1.0, a correction factor based on Brain Weight (BrW) can be applied, or a protein binding correction can be applied when available. In a similar manner, simple allometric scaling was employed to predict human Volume of Distribution. This method has been used successfully for varied drugs (Ward & Smith, Drug Metab Dispos 32:612-19, 2004; McGinnity et al., Curr Drug Metab 8:463-79, 2007).

Data set [3] can be described thus: Monkey single dose pharmacokinetics. The conditions noted are these: male, plasma, iv, Cynomolgus Monkey; for Vd: read-out: Vss. Type of data set: in vivo. The procedure:
Non-naïve Male Cynomolgus Monkey (2-5 years of age, body weight 2-5 kg) used in this study were obtained from Topgene Biotechnology. All animals for IV administration had free access to food and water; all animals for PO were fasted overnight prior to dosing and were fed approximately 6 hours after dosing. The IV dose solution was prepared in 10% DMA/50% PG/40% HPOCD solution (40% w/v aqueous HPOCD) at a concentration of 1.0 mg/mL. The oral dose suspension was prepared by suspending the compound in 0.5% HPMC/0.1% Tween 80 in distilled water at a concentration of 0.2 mg/mL. Concentrations of IV and PO doses were measured at the end of the study. PK parameters were calculated using the nominal dose values if the measured values were within 20% of the nominal values. Blood samples were collected by venipuncture of peripheral veins except the dosing vein at pre-dose, 5 15, 30 min, 1, 2, 4, 6, 8, 24 and 48 h post-dose. Blood samples were centrifuged and resultant plasma was frozen for bioanalysis. Plasma samples were stored at −80° C. before analysis. Plasma samples were analyzed for compound concentrations using the LC/MS/MS method. Briefly, a 50 μL aliquot of each plasma sample was mixed with 100 μL of acetonitrile that contained an internal standard. The mixture was vortexed and centrifuged. Ten (10) p L of the resulting solution was injected onto a reverse-phase C18 column and the resultant peaks detected on a LC/MS/MS equipped with a turbo ionspray ionization source. Sample concentrations below the limit of quantification (BLQ) were treated as zero for PK calculations. PK parameters were estimated from individual animals using noncompartmental analysis of the concentration-time data (Phoenix WinNonLin software, version 64; Pharsight, Mountain View, CA). The elimination rate constant (k) was calculated as the absolute value of the slope of the linear regression of logarithm (log) of the concentration versus time for the last three data points of the concentration-time profiles. Apparent elimination half-life (t½) values were calculated as 1n(2)/k. Area under the concentration-time curve (AUC) values were estimated using linear trapezoidal method. AUC values were calculated from the dosing time to the last measurable concentration. AUC∞ values were calculated as the sum of the corresponding AUC and the ratio of the last detectable concentration divided by k. Plasma clearance (CL) was calculated from Dose/AUC.. Mean resident time extrapolated to infinity (MRT∞) was estimated by moment analysis. Vss was calculated from MRT. X CL. Maximum concentration (Cmax) and time to reach Cmax (tmax) were recorded as observed. As this was a cross-over study, bioavailability was calculated dAUC∞,po/dAUC∞,iv ×100% where dAUC was the dose normalized AUC value from the same animal given IV and PO dose. Compounds tested were prepared in accordance with the synthetic procedures described herein.

Regarding `O=CN1CC2(C1)C(=O)N(c1ccc(F)cc1F)CC(=O)N2Cc1ccc(Cl)cc1` [Comparator A, 5-(4-chlorobenzyl)-8-(2,4-difluorophenyl)-6,9-dioxo-2,5,8-triazaspiro[3.5]nonane-2-carbaldehyde], in data set [1], the clearance was 1.59 mL/min/kg and the Vd came to 5.2 L/kg. Also, in data set [2], the “Projected t1/2” value was 38.7 h.

Regarding `C[C@H]1CC[C@H](N2CC(=O)N(Cc3ccc(F)c(F)c3)C3(CN(C=O)C3)C2=O)CC1` [Compound 1, 5-(3,4-difluorobenzyl)-8-((1r,4r)-4-methylcyclohexyl)-6,9-dioxo-2,5,8-triazaspiro[3.5]nonane-2-carbaldehyde], in data set [1], the clearance is 7.57 mL/min/kg and the Vd was determined as 4.23 L/kg. Also, in data set [3], the clearance is 11.6 mL/min/kg, the half-life was 9.94 h and the Vd came out at 8.89 L/kg. The “Projected t1/2” value in data set [2] is on record as 28.3 h.

Turning to `O=C1[C@H](C2COC2)N(Cc2ccc(C(F)(F)F)cc2)C(=O)CN1c1ncc(Cl)cc1F` [Comparator C, (S)-1-(5-chloro-3-fluoropyridin-2-yl)-3-(oxetan-3-yl)-4-(4-(trifluoromethyl)benzyl)piperazine-2,5-dione, reference compound], in data set [1], the clearance was determined as 4.92 mL/min/kg and the Vd worked out at 5.91 L/kg. Moreover, in data set [3], the clearance was 13.8 mL/min/kg, the half-life is 11.6 h and the Vd was 12 L/kg. Moreover, in data set [2], the “Projected t1/2” value worked out at 41 h.

On to `CC(=O)N1CC2(C1)C(=O)N(c1ccc(C#N)cc1F)CC(=O)N2Cc1ccc(C(F)(F)F)cc1` [Comparator D, 4-(2-acetyl-6,9-dioxo-5-(4-(trifluoromethyl)benzyl)-2,5,8-triazaspiro[3.5]nonan-8-yl)-3-fluorobenzonitrile], for which, in data set [1], the clearance is 3.55 mL/min/kg and the Vd was 6.7 L/kg. Further, in data set [3], the clearance stood at 6.92 mL/min/kg, the half-life is 18.1 h and the Vd was 12.4 L/kg. In data set [2], the “Projected t1/2” value was 62 h.

Turning to `O=CN1CC2(C1)C(=O)N([C@H]1CC[C@H](C(F)F)CC1)CC(=O)N2Cc1ccc(C(F)(F)F)cc1` [Comparator E, 8-((1r,4r)-4-(difluoromethyl)cyclohexyl)-6,9-dioxo-5-(4-(trifluoromethyl)benzyl)-2,5,8-triazaspiro[3.5]nonane-2-carbaldehyde], in data set [1], the clearance was 1.49 mL/min/kg and the Vd was found to be 4.1 L/kg. In data set [3], the clearance was 3.4 mL/min/kg, the half-life was 16 h and the Vd was 4.35 L/kg. Moreover, the “Projected t1/2” value in data set [2] stood at 51.7 h.

For orientation: clearance means the rate of elimination divided by the concentration. In general, half-life refers to the time in which the quantity being followed falls by half.
